Data as given in patent US20160264593A1 (priority 2013, published 2016).
One block for each compound: values may come before it.

Experiment: in vivo
Set-up: species or system SD rats
Details: rat, 1.4 mg/kg; for Kp: AUC(0-t) ratio of liver over plasma
Experimental: 113 was dissolved in 4% NaHCO3 in saline for IV administration. The detailed procedure of dosing solution preparation was presented in Appendix I.
15 animals were placed on the study. The animals in IV arm were free access to food and water. For PO dose group, the animals were fasted overnight prior to dosing and the food was resumed 4 hours postdose.
One extra animal was used for blank liver, brain and plasma generation (5 mL per animal). The resulting blank liver, brain and plasma were then applied to the development of bioanalytical method and sample bioanalysis for the entire study.
The IV injection was conducted via foot dorsal vein. PO via oral gavage.
Blood collection: The animal is restrained manually. Approximately 200 μL of blood/time point is collected into sodium heparin tube via cardiac puncture for terminal bleeding (anesthetized under carbon dioxide). Blood sample will be put on ice and centrifuged to obtain plasma sample (2000 g, 5 min under 4° C.) within 10 minutes.
Liver collection: The animal will be euthanized with carbon dioxide inhalation. Open abdominal cavity with scissor to expose internal organs. Hold the carcass in an upright position and allow the organs to fall forward. Cut the connective tissues and remove the organs. Then the organs are rinsed with cold saline, dried on filtrate paper, placed into a screw-top tube and weighed, snap frozen by placing into dry-ice immediately.
Brain collection: Make a mid-line incision in the animals scalp and retract the skin. Using small bone cutters and rongeurs, remove the skull overlying the brain. Remove the brain using a spatula and rinse with cold saline, dried on filtrate paper, placed into a screw-top tube and weighed, snap frozen by placing into dry-ice immediately. Brain tissue will be homogenized for 2 min with 3 volumes (v/w) of homogenizing solution (PBS pH 7.4) right before analysis. Plasma, brain and liver samples were stored at approximately −80° C. until analysis. The backup samples will be discarded after three weeks after in-life completion unless requested. The unused dosing solutions will be discarded within three weeks after completion of the study.
The PK parameters were determined by non-compartmental model of non-compartmental analysis tool, Pharsight Phoenix WinNonlin® 6.2 software.
Concentration data within 80%-120% of LLOQ was considered within normal instrumental variation and presented in the results.
Time points were automatic selected by “best fit” model for terminal half life estimation as the first option. Manual selection was applied when “best fit” could not well define the terminal phase.

[1] = male, Sprague-Dawley (SD), iv, 6 hr
[2] = male, SD, iv, Liver-plasma concentration ratio of 113
[3] = male, SD, iv, liver concentration of 113
[4] = male, SD, iv, plasma concentration of 113
[5] = male, SD, po, plasma concentration of 113
[6] = male, Sprague-Dawley, iv, Brain-plasma concentration ratio of 113
[7] = male, Sprague-Dawley, iv, brain concentration of 113

Structure (SMILES): CN1CCN(C(=O)C2C3CCC(O3)C2C(=O)O)CC1 (stereo not drawn) [Compound 100, 3-(4-methylpiperazine-1-carbonyl)-7-oxa-bicyclo[2,2,1]-heptane-2-carboxylic acid]
- AUC(0-inf) (male, Sprague-Dawley (SD), iv): 2830 ng·h/mL
- AUC(0-t) (male, Sprague-Dawley (SD), iv): 2800 ng·h/mL
- AUC(0-t) of 100 (male, Sprague-Dawley (SD), iv): 703 ng·h/mL
- AUC(0-∞) of 100 (male, Sprague-Dawley (SD), iv): 707 ng·h/mL
- Tmax (male, Sprague-Dawley (SD), iv): 15 min
- Tmax of 100 (male, Sprague-Dawley (SD), iv): 15 min
- Liver-plasma concentration ratio of 100 [1]: 7.32
- plasma concentration of 100 [1]: 3.25 ng/mL
- AUC(0-last) of 100 in plasma (male, Sprague-Dawley, iv): 703 ng·h/mL
- AUC(0-t) ratio of liver over plasma, 100 (male, Sprague-Dawley, iv): 399
- AUC(0-∞) of 100 in plasma (male, Sprague-Dawley, iv): 707 ng·h/mL
- Cmax of 100 in liver (male, Sprague-Dawley, iv): 1895 ng/g
- Cmax of 100 in plasma (male, Sprague-Dawley, iv): 554 ng/mL
- Tmax of 100 in liver (male, Sprague-Dawley, iv): 15 min
- Tmax of 100 in plasma (male, Sprague-Dawley, iv): 15 min
- plasma concentration of 100 (male, Sprague-Dawley, iv, 6 h): 3.25 ng/mL
- AUC(0-last) of 100 in liver (iv): 2804 ng·h/g
- AUC(0-∞) of 100 in liver (iv): 2834 ng·h/g
- AUClast-liver/AUClast-plasma of 100 (iv): 399

- Liver-plasma concentration ratio of 113 (male, SD, iv, 1 h): 1.18
- AUC(0-t) (male, SD, iv, AUClast of 113 in plasma): 155 ng·h/mL
- Kp at 0.25 h [2]: 0.321
- Kp at 1 h [2]: 1.35
- concentration at 0.25 h [3]: 55.5 ng/g
- concentration at 1 h [3]: 14.6 ng/g
- concentration at 0.25 h [4]: 173 ng/mL
- concentration at 1 h [4]: 10.8 ng/mL
- plasma concentration of 113 (male, SD, po, 2 h): 2.15 ng/mL
- concentration at 0.25 h [5]: 18.3 ng/mL
- concentration at 1 h [5]: 4.61 ng/mL
- concentration at 2 h [5]: 2.15 ng/mL
- Cmax of 113 (male, Sprague-Dawley (SD), iv): 90.4 ng/mL
- Tmax (male, Sprague-Dawley (SD), iv): 15 min
- Cmax (male, Sprague-Dawley (SD), iv, Cmax of 113): 46.2 ng/mL
- F of 113 (male, Sprague-Dawley (SD), po): 10.1%
- Tmax (male, Sprague-Dawley (SD), po): 15 min
- AUC(0-t) (male, Sprague-Dawley (SD), po, AUC(0-t) of 113): 15.7 ng·h/mL
- Cmax (male, Sprague-Dawley (SD), po, Cmax of 113): 17.7 ng/mL
- bioavailability (male, Sprague-Dawley): 10.1%
- Tmax (male, Sprague-Dawley, iv): 15 min
- Kp (male, Sprague-Dawley, iv, 113): 18.1
- Kp (male, Sprague-Dawley, iv, 113 (printed in the brain paragraph)): 30.6
- Kp at 0.25 h [6]: 0.498
- Kp at 1 h [6]: 0.537
- Cmax (male, Sprague-Dawley, iv, Cmax of 113 in brain): 90.4 ng/g
- Cmax (male, Sprague-Dawley, iv, Cmax of 113 in liver): 46.2 ng/g
- Kp at 1 h (male, Sprague-Dawley, iv, Liver-plasma concentration ratio of 113): 1.27
- concentration at 0.25 h [7]: 86.2 ng/g
- concentration at 1 h [7]: 5.8 ng/g
- Tmax (male, Sprague-Dawley, po): 15 min
- AUC(0-t) (male, Sprague-Dawley, po, AUClast of 113 in plasma): 15.7 ng·h/mL
- Cmax (male, Sprague-Dawley, po, Cmax of 113 in plasma): 17.7 ng/mL
- AUC(0-last) of 113 in brain (iv): 47.5 ng·h/g
- AUC(0-last) of 113 in liver (iv): 28.1 ng·h/g
Structure (SMILES): CN1CCN(C(=O)C2C(C(=O)OCC(Cl)(Cl)Cl)[C@H]3CC[C@@H]2O3)CC1 (stereo partly drawn) [Compound 113]
